Laboratory results reported in publication PMC10442672, “Synthesis of amantadine clubbed N-aryl amino thiazoles as potent urease, α-amylase & α-glucosidase inhibitors, kinetic and molecular docking studies” (RSC Advances, 2023).
≈ marks a conversion by molar mass, not a printed value. Where “and” joins values, the source holds several entries; their conditions need not be identical. Equal entries are not always repeated. Blank lines part the entries; values can stand above or below the compound they belong to.

Legend:
[1] = DPPH assay (antioxidant potential); conditions: DPPH 100 μM; 30 minutes at 37 °C; triplicate
Description: DPPH assay as reported earlier was used to determine the antioxidant potential of newly synthesised compound.[46] For experiment, […] (100 μM) solution was mixed with 5 μl of sample compounds and ascorbic acid (positive control) at concentration of 100, 50 and 25 μM in 96-well plate respectively. Plate was incubated in dark for 30 minutes at 37 °C and then absorbance was measured at 515 nm using Elx800 microtiter plate reader. The experiment was performed in triplicate and percentage scavenging was calculated as following:Percentage scavenging (%) = [1 − absorbance of sample/absorbance of control] × 100

[2] = system: Bacillus subtilis; assay: Antibacterial disc diffusion assay; assay type: cell-based; conditions: for MIC / zone of inhibition at 100 µM: Bacillus subtilis
Description: (§1) Anti-bactericidal activity of the compounds was determined by using disc diffusion method. […] The assay was performed in triplicate and Kanamycin was used as positive control. […] According to Yildiz et al.[39] the antibacterial activity of a substitution connected to a biologically active molecule may be increased.
(§2) Disc diffusion assay was used to determine the antibacterial potential of newly synthesised compounds as reported earlier.[45] For experiment, 1% inoculum of Bacillus subtilis, Staphylococcus aureus, Escherichia coli and Pseudomonas aeruginosa was transferred to autoclaved nutrient agar media (23 g l^−1) respectively. Then media were poured in respective plates and allowed to solidify. Samples (100 μM) and Kanamycin drug (10 μM) was loaded on sterile paper disc (5 mm) and these discs were placed on Petriplates at appropriate distance. Plates were incubated for 24 hours at 37 °C and zone of inhibition were measured using Vernier calliper.

[3] = system: Escherichia coli; assay: Antibacterial disc diffusion assay; assay type: cell-based
Description: as §1, §2

[4] = system: Pseudomonas aeruginosa; assay: Antibacterial disc diffusion assay; assay type: cell-based
Description: as §1, §2

[5] = system: Staphylococcus aureus; assay: Antibacterial disc diffusion assay; assay type: cell-based
Description: as §1, §2

[6] = molecular target: α-amylase; assay type: biochemical; conditions: starch substrate; pH 6.8; 30 minutes at 50 °C; triplicate
Description: α-Amylase inhibition assay was performed to calculate the enzyme inhibition potential of newly synthesised compounds.[48] […] In blank 40 μl starch and 50 μl phosphate buffer was added. […] Then absorbance was measured at 540 nm using Elx800 microtiter plate reader.

[7] = system: Bacillus subtilis, Staphylococcus aureus, Escherichia coli and Pseudomonas aeruginosa; assay: Antibacterial disc diffusion assay, all four tested strains; assay type: cell-based
Description: as §1, §2

[8] = molecular target: urease (Canavalia ensiformis, UniProt P07374); conditions: read-out: Urease IC50; 100 mM urea; pH 8.2; 37 °C; triplicate
[9] = disc diffusion, samples 100 μM, Kanamycin 10 μM on disc, 24 hours at 37 °C

Sequence of urease (P07374 whole entry, looked up, the tested form may be a part): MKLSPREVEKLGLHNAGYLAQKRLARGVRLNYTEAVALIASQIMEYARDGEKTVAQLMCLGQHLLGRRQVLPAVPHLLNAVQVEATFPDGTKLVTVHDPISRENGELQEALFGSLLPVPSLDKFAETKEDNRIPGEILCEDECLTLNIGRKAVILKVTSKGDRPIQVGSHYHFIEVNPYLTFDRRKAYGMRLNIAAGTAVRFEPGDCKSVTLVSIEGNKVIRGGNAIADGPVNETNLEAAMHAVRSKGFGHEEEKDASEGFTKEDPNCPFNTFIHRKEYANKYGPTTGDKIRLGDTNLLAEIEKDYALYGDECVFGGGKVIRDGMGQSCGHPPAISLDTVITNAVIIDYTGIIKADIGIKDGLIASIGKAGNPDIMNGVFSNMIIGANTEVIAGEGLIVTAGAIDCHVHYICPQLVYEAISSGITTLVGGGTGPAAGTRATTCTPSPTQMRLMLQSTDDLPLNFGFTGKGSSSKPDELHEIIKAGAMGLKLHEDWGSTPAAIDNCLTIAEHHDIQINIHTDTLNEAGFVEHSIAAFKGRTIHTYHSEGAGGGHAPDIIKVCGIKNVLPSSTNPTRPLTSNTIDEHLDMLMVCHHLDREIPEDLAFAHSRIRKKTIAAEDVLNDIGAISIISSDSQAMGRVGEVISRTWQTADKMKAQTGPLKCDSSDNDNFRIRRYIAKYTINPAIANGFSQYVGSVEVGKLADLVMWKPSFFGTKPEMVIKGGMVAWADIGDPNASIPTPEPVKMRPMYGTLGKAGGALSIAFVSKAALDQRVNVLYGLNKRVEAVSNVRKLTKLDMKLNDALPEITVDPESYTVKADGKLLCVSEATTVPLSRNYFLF

IC50 [1]: 0.892 µM and 0.89 µM
SMILES: O=C1O[C@H]([C@@H](O)CO)C(O)=C1O [Ascorbic acid, reference compound]

MIC Bacillus subtilis [2]: MIC = 25 μM | MIC Escherichia coli [3]: MIC = 25 μM | MIC Pseudomonas aeruginosa [4]: MIC = 20 μM | MIC Staphylococcus aureus [5]: MIC = 20 μM
SMILES: NC[C@H]1O[C@H](O[C@H]2[C@H](O)[C@@H](O[C@H]3O[C@H](CO)[C@@H](O)[C@H](N)[C@H]3O)[C@H](N)C[C@@H]2N)[C@H](O)[C@@H](O)[C@@H]1O [Kanamycin, reference compound]
Antibacterial zone of inhibition Bacillus subtilis [2, 9]: 21 mm | Antibacterial zone of inhibition Escherichia coli [3, 9]: 20 mm | Antibacterial zone of inhibition Pseudomonas aeruginosa [4, 9]: 22 mm | Antibacterial zone of inhibition Staphylococcus aureus [5, 9]: 24 mm

SMILES: COc1ccc(Nc2nc(C)c(C(=O)NC34CC5CC(CC(C5)C3)C4)s2)cc1 [Compound 6d, N-(Adamantan-1-yl)-4-methyl-2-((4-methoxyphenyl)amino)thiazole-5-carboxamide]
IC50 [1]: 19.2 ± 0.37 µM | IC50 [6]: 97.4 ± 1.53 µM | antibacterial activity against tested bacterial strains [7]: no antibacterial activity | melting point: 226 to 229 °C

SMILES: Cc1nc(Nc2ccccc2Cl)sc1C(=O)NC12CC3CC(CC(C3)C1)C2 [Compound 6g, N-(Adamantan-1-yl)-4-methyl-2-((2-chlorophenyl)amino)thiazole-5-carboxamide]
MIC [2]: 75 µM (≈ 30.1 µg/mL) | zone of inhibition at 100 µM [2, 9]: 7 mm | IC50 [1]: 122 ± 6.54 µM | IC50 [6]: > 100 µM | antibacterial activity against tested bacterial strains [7]: activity against one bacterial strain out of four | melting point: 202 to 203 °C

SMILES: NC(N)=S [Thiourea]
IC50 [8]: 1.33 µM

SMILES: Cc1nc(Nc2ccc([N+](=O)[O-])cc2)sc1C(=O)NC12CC3CC(CC(C3)C1)C2 [Compound 6b, N-(Adamantan-1-yl)-4-methyl-2-((4-nitrophenyl)amino)thiazole-5-carboxamide]
IC50 [1]: 108 ± 1.93 µM | IC50 [6]: > 100 µM | antibacterial activity against tested bacterial strains [7]: no antibacterial activity | melting point: 300 to 303 °C

SMILES: Cc1nc(Nc2ccc(NS(C)(=O)=O)c(Oc3ccccc3)c2)sc1C(=O)NC12CC3CC(CC(C3)C1)C2 [Compound 6h, N-Adamantyl-4-methyl-2-((4-(methylsulfonamido)-3-phenoxyphenyl)amino) thiazole-5-carboxamide]
IC50 [1]: 64.1 ± 0.71 µM | IC50 [6]: > 100 µM | melting point: 156 to 160 °C

SMILES: Cc1nc(Nc2cccc(F)c2)sc1C(=O)NC12CC3CC(CC(C3)C1)C2 [Compound 6i, N-Adamantyl-2-((3-fluorophenyl)amino)-4-methylthiazole-5-carboxamide]
IC50 [1]: 131 ± 1.11 µM | IC50 [6]: > 100 µM | melting point: 220 to 225 °C

SMILES: Cc1nc(N)sc1C(=O)NC12CC3CC(CC(C3)C1)C2 [Compound 6a, N-(Adamantan-1-yl)-2-amino-4-methylthiazole-5-carboxamide]
MIC [2]: 50 µM (≈ 14.6 µg/mL) | zone of inhibition at 100 µM [2, 9]: 13 mm | MIC ([3]; Escherichia coli): 50 µM (≈ 14.6 µg/mL) | zone of inhibition at 100 µM ([3]; Escherichia coli, disc diffusion, samples 100 μM, Kanamycin 10 μM on disc, 24 hours at 37 °C): 11 mm | MIC ([4]; Pseudomonas aeruginosa): 50 µM (≈ 14.6 µg/mL) | zone of inhibition at 100 µM ([4]; Pseudomonas aeruginosa, disc diffusion, samples 100 μM, Kanamycin 10 μM on disc, 24 hours at 37 °C): 10 mm | MIC ([5]; Staphylococcus aureus): 75 µM (≈ 21.9 µg/mL) | zone of inhibition at 100 µM ([5]; Staphylococcus aureus, disc diffusion, samples 100 μM, Kanamycin 10 μM on disc, 24 hours at 37 °C): 8 mm | IC50 [1]: 157 ± 10.3 µM | IC50 [6]: 118.3 ± 0.71 µM | antibacterial activity against tested bacterial strains [7]: significant antibacterial activity | melting point: 256 to 257 °C

SMILES: Cc1nc(Nc2ccc(Br)cc2)sc1C(=O)NC12CC3CC(CC(C3)C1)C2 [Compound 6c, N-(Adamantan-1-yl)-4-methyl-2-((4-bromophenyl)amino)thiazole-5-carboxamide]
MIC [2]: 75 µM (≈ 33.5 µg/mL) | zone of inhibition at 100 µM [2, 9]: 7 mm | IC50 [1]: 126 ± 2.66 µM | IC50 [6]: > 100 µM | antibacterial activity against tested bacterial strains [7]: activity against one bacterial strain out of four | melting point: 277 to 280 °C

SMILES: Cc1nc(NC23CC4CC(CC(C4)C2)C3)sc1C(=O)NC12CC3CC(CC(C3)C1)C2 [Compound 6j, N-Adamantanyl-2-(((3s,5s,7s)-adamantan-1-yl)amino)-4-methylthiazole-5-carboxamide]
IC50 [1]: 137.9 ± 0.9 µM | IC50 [6]: > 100 µM | melting point: 250 to 253 °C

SMILES: COc1ccccc1Nc1nc(C)c(C(=O)NC23CC4CC(CC(C4)C2)C3)s1 [Compound 6e, N-(Adamantan-1-yl)-4-methyl-2-((2-methoxyphenyl)amino)thiazole-5-carboxamide]
IC50 [1]: 110.3 ± 0.76 µM | IC50 [6]: > 100 µM | α-Amylase IC50 [6]: inactive | antibacterial activity against tested bacterial strains [7]: no antibacterial activity | melting point: 210 to 212 °C

SMILES: Cc1nc(Nc2cccc(Cl)c2)sc1C(=O)NC12CC3CC(CC(C3)C1)C2 [Compound 6f, N-(Adamantan-1-yl)-4-methyl-2-((3-chlorophenyl)amino)thiazole-5-carboxamide]
IC50 [1]: 136.7 ± 1.33 µM | IC50 [6]: > 100 µM | antibacterial activity against tested bacterial strains [7]: no antibacterial activity | melting point: 253 to 254 °C
